From PubChem BioAssay (NCI)
Several values for one entry are separate records, joined by “and”; a condition that tells them apart may be missing. Identical values can stand only once.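 How tested: cells in 96-well plates exposed to compound for 48 hours at five concentrations. Here, GI50 denotes the concentration required for 50% inhibition of growth. TGI marks complete inhibition of growth.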

Columns and labels:
Test in all cases: NCI tumour cell line growth inhibition, 48 h
CCRF-CEM leukemia = tested on: CCRF-CEM leukemia
HCC-2998 colon = tested on: HCC-2998 colon
HS 578T breast = tested on: HS 578T breast
NCI-H226 lung = tested on: NCI-H226 lung
NCI/ADR-RES ovarian = tested on: NCI/ADR-RES ovarian
RPMI-8226 leukemia = tested on: RPMI-8226 leukemia
SK-MEL-2 melanoma = tested on: SK-MEL-2 melanoma
SNB-19 CNS = tested on: SNB-19 CNS
SW-620 colon = tested on: SW-620 colon
TK-10 renal = tested on: TK-10 renal

Row | Structure (SMILES) | GI50 (CCRF-CEM leukemia) | TGI (CCRF-CEM leukemia) | GI50 (HCC-2998 colon) | TGI (HCC-2998 colon) | GI50 (HS 578T breast) | TGI (HS 578T breast) | GI50 (NCI-H226 lung) | TGI (NCI-H226 lung) | GI50 (NCI/ADR-RES ovarian) | TGI (NCI/ADR-RES ovarian) | GI50 (RPMI-8226 leukemia) | TGI (RPMI-8226 leukemia) | GI50 (SK-MEL-2 melanoma) | TGI (SK-MEL-2 melanoma) | GI50 (SNB-19 CNS) | TGI (SNB-19 CNS) | GI50 (SW-620 colon) | TGI (SW-620 colon) | GI50 (TK-10 renal) | TGI (TK-10 renal)
1 | COc1ccc(C2[C@@H](c3ccccc3)C(=O)N2c2cc(OC)c(OC)c(OC)c2)cc1F (some centres undefined) | 0.0361 µM | > 100 µM | 0.0394 µM | > 100 µM | 0.0434 µM | 78.7 µM | 0.035 µM | > 100 µM | 0.0394 µM | > 100 µM | 0.0413 µM | 4 µM | 0.0354 µM | > 100 µM | 0.0499 µM | > 100 µM | 0.0419 µM | > 100 µM | 1.68 µM | > 100 µM
2 | CC(=O)CC(OC(C)=O)C1=CCC2C(CC1C)OC(=O)C2C (centres undefined) | – | > 100 µM | – | > 100 µM | – | > 100 µM | – | > 100 µM | – | > 100 µM | – | > 100 µM | – | > 100 µM | – | > 100 µM | – | > 100 µM | – | > 100 µM
3 | COc1cc(/C(C#N)=C/c2nc3c(N4CCOCC4)nc(Cl)nc3n2C)cc(OC)c1OC | < 0.01 µM | 0.668 µM | < 0.0157 µM | 2.19 µM | < 0.01 µM | > 23.7 µM | – | 3.03 µM | < 0.01 µM | 5.56 µM | < 0.01 µM | 1.88 µM | < 0.0144 µM | 62.7 µM | < 0.01 µM | > 100 µM | < 0.01 µM | > 100 µM | 2.91 µM | 17.8 µM
4 | CC1(COc2ccc3c(c2)ncn3-c2ccc3cccc(N4CCC(N)CC4)c3n2)COC1 | 2.02 µM and 1.39 µM | 6.44 µM and 5.86 µM | 2.7 µM and 2.25 µM | 7.51 µM and 7.85 µM | 2.08 µM and 0.385 µM | 15.3 µM and 4.77 µM | 3.18 µM and 2.54 µM | 9.32 µM and > 10 µM | 7.04 µM and > 10 µM | 20.6 µM and > 10 µM | 2.08 µM and 1.88 µM | 5.29 µM and 5.21 µM | 4.96 µM and 3.29 µM | 11.9 µM and 6.85 µM | 4.35 µM and 3.36 µM | 13.2 µM and > 10 µM | 3.09 µM and 2.52 µM | 11 µM and > 10 µM | 1.97 µM and 2.56 µM | 6.73 µM and > 10 µM
5 | CN1CC[C@@H](NC(=O)Nc2ccc(C#N)cc2)C[C@@H]1c1nc2ccccc2[nH]1 | 97.4 µM | > 100 µM | > 41.3 µM | > 56.4 µM | > 100 µM | > 100 µM | > 100 µM | > 100 µM | > 49.8 µM | > 86.6 µM | > 100 µM | > 100 µM | > 100 µM | > 100 µM | > 100 µM | > 100 µM | > 100 µM | > 100 µM | > 100 µM | > 100 µM
6 | Nc1ccc(C2=NNC(=O)Cc3cc4c(cc32)OCCO4)cc1Cl | 3.47 µM | > 50 µM | 3.73 µM | > 50 µM | 4.33 µM | 25 µM | 8.12 µM | > 50 µM | 1.3 µM | 7.32 µM | 7.56 µM | > 50 µM | 2.81 µM | 44.6 µM | 8.19 µM | > 50 µM | 2.01 µM | > 50 µM | 18.9 µM | > 50 µM
7 | COc1ccc(/C=N/NC(=O)c2cccc3cc[nH]c23)cc1O | 1.93 µM | > 28.5 µM | 6.96 µM | 97.5 µM | 1.47 µM | > 30.3 µM | 6.28 µM | > 33.7 µM | 1.86 µM | > 100 µM | 3.38 µM | 24.8 µM | 18.9 µM | > 100 µM | 4.07 µM | > 100 µM | 0.65 µM | > 100 µM | 14.4 µM | > 100 µM
8 | O=C(/C=C/c1ccc(O)cc1)c1ccc(O)cc1 | – | > 85 µM | – | 52.7 µM | – | > 67.5 µM | – | 27.2 µM | – | > 63.1 µM | – | 69 µM | – | 50 µM | – | > 78.2 µM | – | 57.9 µM | – | > 100 µM
